system: Rhipicephalus sanguineus; assay: Rhipicephalus sanguineus in vitro contact test with adult brown dog ticks; format: in vivo; conditions: application rate 1 μg/cm^2 (100 g/ha); after 48 h; ticks dead or moribund
Description: Rhipicephalus sanguineus—In Vitro Contact Tests with Adult Brown Dog Ticks
For the coating of the test tubes, 9 mg of active ingredient are first dissolved in 1 ml of acetone p.a. and then diluted to the desired concentration with acetone p.a. 250 μl of the solution are distributed homogeneously on the inner walls and base of a 25 ml test tube by turning and rocking on an orbital shaker (rocking rotation at 30 rpm for 2 h). With 900 ppm active ingredient solution and internal surface 44.7 cm^2, given homogeneous distribution, an area-based dose of 5 μg/cm^2 is achieved.
After the solvent has evaporated off, the tubes are populated with 5-10 adult dog ticks (Rhipicephalus sanguineus), sealed with a perforated plastic lid and incubated in a horizontal position in the dark at room temperature and ambient humidity. After 48 h, efficacy is determined. To this end, the ticks are knocked to the floor of the tube and incubated on a hotplate at 45-50° C. for not more than 5 min. Ticks which remain motionless on the floor or move in such an uncoordinated manner that they are unable to deliberately avoid the heat by climbing upwards are considered to be dead or moribund.
An efficacy of 100% means that all the ticks were dead or moribund. 0% efficacy means that none of the ticks had been harmed.

Row | Compound | efficacy
1 | COc1cc(C(=O)Nc2cc(-c3cnn(-c4c(C(F)(F)F)c(C(F)(F)C(F)(F)F)nn4C)c3)cnc2Cl)ccc1F [Example 2-007] | 80%

same assay, conditions: application rate 5 μg/cm^2 (500 g/ha); after 48 h; ticks dead or moribund

Row | Compound | efficacy
2 | COCCC(=O)Nc1cc(-c2cnn(-c3c(C(F)(F)F)c(C(F)(F)C(F)(F)F)nn3C)c2)ccc1F [Example 1-061] | 80%
3 | CCC(=O)Nc1cccc(-c2cnn(-c3c(C(F)(F)F)c(C(F)(F)C(F)(F)F)nn3C)c2)c1 [Example 1-008] | 100%
4 | Cn1nc(C(F)(F)C(F)(F)F)c(C(F)(F)F)c1-n1cc(-c2ccc(F)c(NC(=O)c3cccc(F)c3F)c2)cn1 [Example 1-070] | 80%
5 | Cn1nc(C(F)(F)C(F)(F)F)c(C(F)(F)F)c1-n1cc(-c2cccc(NC(=O)C3(Cl)CC3)c2)cn1 [Example 1-030] | 80%
6 | Cn1nc(C(F)(F)C(F)(F)F)c(C(F)(F)F)c1-n1cc(-c2ccc(F)c(NC(=O)Cc3cccs3)c2)cn1 [Example 1-117] | 100%
7 | Cc1ccc(C(=O)Nc2cc(-c3cnn(-c4c(C(F)(F)F)c(C(F)(F)C(F)(F)F)nn4C)c3)ccc2F)cc1C [Example 1-090] | 100%

system: Boophilus microplus; assay: Boophilus microplus injection test; format: in vivo; conditions: application rate 20 μg/animal; injection into abdomen; assessed after 7 days
Description: Boophilus microplus—Injection Test
(§1) Solvent: dimethyl sulphoxide
To produce an appropriate active ingredient formulation, 10 mg of active ingredient are mixed with 0.5 ml of solvent and the concentrate is diluted with solvent to the desired concentration.
1 μl of the active ingredient solution is injected into the abdomen of 5 engorged adult female cattle ticks (Boophilus microplus). The animals are transferred into dishes and kept in a climate-controlled room.
Efficacy is assessed after 7 days by laying of fertile eggs. Eggs which are not visibly fertile are stored in a climate-controlled cabinet until the larvae hatch after about 42 days. An efficacy of 100% means that none of the ticks has laid any fertile eggs; 0% means that all the eggs are fertile.

Row | Compound | efficacy (laying of fertile eggs)
8 | Cc1c(C(=O)Nc2cc(-c3cnn(-c4c(C(F)(F)F)c(C(F)(F)C(F)(F)F)nn4C)c3)ccc2F)oc2ccccc12 [Example 1-059] | 100%
9 | CC(C(=O)Nc1cc(-c2cnn(-c3c(C(F)(F)F)c(C(F)(F)C(F)(F)F)nn3C)c2)ccc1F)c1ccccc1 (racemic) [Example 1-108] | 100%
10 | Cc1cn(CC(=O)Nc2cc(-c3cnn(-c4c(C(F)(F)F)c(C(F)(F)C(F)(F)F)nn4C)c3)ccc2F)nc1C(F)(F)F [Example 1-112] | 95%
11 | COc1cc(C(=O)Nc2cc(-c3cnn(-c4c(C(F)(F)F)c(C(F)(F)C(F)(F)F)nn4C)c3)cnc2Cl)ccc1F [Example 2-007] | 100%
12 | Cn1nc(C(F)(F)C(F)(F)F)c(C(F)(F)F)c1-n1cc(-c2ccc(F)c(NC(=O)CC(C)(C)C)c2)cn1 [Example 1-079] | 100%
13 | Cn1nc(C(F)(F)C(F)(F)F)c(C(F)(F)F)c1-n1cc(-c2cccc(NC(=O)c3ncccc3Cl)c2F)cn1 [Example 1-020] | 100%
14 | Cn1nc(C(F)(F)C(F)(F)F)c(C(F)(F)F)c1-n1cc(-c2ccc(F)c(NC(=O)COCc3ccccc3)c2)cn1 [Example 1-114] | 100%
15 | CC(Oc1ccccc1)C(=O)Nc1cc(-c2cnn(-c3c(C(F)(F)F)c(C(F)(F)C(F)(F)F)nn3C)c2)ccc1F (racemic) [Example 1-123] | 100%
16 | COCCC(=O)Nc1cc(-c2cnn(-c3c(C(F)(F)F)c(C(F)(F)C(F)(F)F)nn3C)c2)ccc1F [Example 1-061] | 100%
17 | Cn1nc(C(F)(F)C(F)(F)F)c(C(F)(F)F)c1-n1cc(-c2ccc(F)c(NC(=O)CSc3ccccc3)c2)cn1 [Example 1-107] | 100%
18 | CCC(=O)Nc1cccc(-c2cnn(-c3c(C(F)(F)F)c(C(F)(F)C(F)(F)F)nn3C)c2)c1 [Example 1-008] | 100%
19 | Cn1nc(C(F)(F)C(F)(F)F)c(C(F)(F)F)c1-n1cc(-c2ccc(F)c(NC(=O)c3cccc(F)c3F)c2)cn1 [Example 1-070] | 100%
20 | Cn1nc(C(F)(F)C(F)(F)F)c(C(F)(F)F)c1-n1cc(-c2cccc(NC(=O)C3(Cl)CC3)c2)cn1 [Example 1-030] | 100%
21 | Cn1nc(C(F)(F)C(F)(F)F)c(C(F)(F)F)c1-n1cc(-c2ccc(F)c(NC(=O)Cc3cccs3)c2)cn1 [Example 1-117] | 100%

system: Ctenocephalides felis; assay: Ctenocephalides felis oral test; format: in vivo; conditions: application rate 100 ppm in citrated cattle blood; after 2 days
Description: Ctenocephalides felis—Oral Test
as §1
For the purpose of producing an appropriate active ingredient formulation, 10 mg of active ingredient are mixed with 0.5 ml of dimethyl sulphoxide. Dilution with citrated cattle blood gives the desired concentration.
About 20 unfed adult cat fleas (Ctenocephalides felis) are placed into a chamber which is closed at the top and bottom with gauze. A metal cylinder whose bottom end is closed with parafilm is placed onto the chamber. The cylinder contains the blood/active ingredient preparation, which can be imbibed by the fleas through the parafilm membrane.
After 2 days, the kill in % is determined. 100% means that all of the fleas have been killed; 0% means that none of the fleas have been killed.

Row | Compound | efficacy (kill in %)
22 | COc1cc(C(=O)Nc2cc(-c3cnn(-c4c(C(F)(F)F)c(C(F)(F)C(F)(F)F)nn4C)c3)cnc2Cl)ccc1F [Example 2-007] | 100%
23 | Cn1nc(C(F)(F)C(F)(F)F)c(C(F)(F)F)c1-n1cc(-c2ccc(F)c(NC(=O)CC(C)(C)C)c2)cn1 [Example 1-079] | 95%
24 | Cn1nc(C(F)(F)C(F)(F)F)c(C(F)(F)F)c1-n1cc(-c2cccc(NC(=O)c3ncccc3Cl)c2F)cn1 [Example 1-020] | 95%
25 | CC(Oc1ccccc1)C(=O)Nc1cc(-c2cnn(-c3c(C(F)(F)F)c(C(F)(F)C(F)(F)F)nn3C)c2)ccc1F (racemic) [Example 1-123] | 90%
26 | COCCC(=O)Nc1cc(-c2cnn(-c3c(C(F)(F)F)c(C(F)(F)C(F)(F)F)nn3C)c2)ccc1F [Example 1-061] | 100%
27 | CCC(=O)Nc1cccc(-c2cnn(-c3c(C(F)(F)F)c(C(F)(F)C(F)(F)F)nn3C)c2)c1 [Example 1-008] | 100%
28 | Cn1nc(C(F)(F)C(F)(F)F)c(C(F)(F)F)c1-n1cc(-c2ccc(F)c(NC(=O)c3cccc(F)c3F)c2)cn1 [Example 1-070] | 100%
29 | Cn1nc(C(F)(F)C(F)(F)F)c(C(F)(F)F)c1-n1cc(-c2cccc(NC(=O)C3(Cl)CC3)c2)cn1 [Example 1-030] | 100%
30 | Cn1nc(C(F)(F)C(F)(F)F)c(C(F)(F)F)c1-n1cc(-c2ccc(F)c(NC(=O)Cc3cccs3)c2)cn1 [Example 1-117] | 100%

system: Lucilia cuprina; assay: Lucilia cuprina test; format: in vivo; conditions: application rate 100 ppm; L1 larvae; after 2 days
Description: as §1
To produce an appropriate active ingredient formulation, 10 mg of active ingredient are mixed with 0.5 ml of dimethyl sulphoxide, and the concentrate is diluted with water to the desired concentration.
About 20 L1 larvae of the Australian sheep blowfly (Lucilia cuprina) are transferred into a test vessel containing minced horsemeat and the active ingredient preparation of the desired concentration.
After 2 days, the kill in % is determined. 100% means that all the larvae have been killed and 0% means that none of the larvae have been killed.

Row | Compound | efficacy (kill in %)
31 | COc1cc(C(=O)Nc2cc(-c3cnn(-c4c(C(F)(F)F)c(C(F)(F)C(F)(F)F)nn4C)c3)cnc2Cl)ccc1F [Example 2-007] | 100%
32 | Cn1nc(C(F)(F)C(F)(F)F)c(C(F)(F)F)c1-n1cc(-c2ccc(F)c(NC(=O)CC(C)(C)C)c2)cn1 [Example 1-079] | 100%
33 | Cn1nc(C(F)(F)C(F)(F)F)c(C(F)(F)F)c1-n1cc(-c2cccc(NC(=O)c3ncccc3Cl)c2F)cn1 [Example 1-020] | 90%
34 | CCC(=O)Nc1cccc(-c2cnn(-c3c(C(F)(F)F)c(C(F)(F)C(F)(F)F)nn3C)c2)c1 [Example 1-008] | 100%
35 | Cn1nc(C(F)(F)C(F)(F)F)c(C(F)(F)F)c1-n1cc(-c2ccc(F)c(NC(=O)c3cccc(F)c3F)c2)cn1 [Example 1-070] | 100%
36 | Cn1nc(C(F)(F)C(F)(F)F)c(C(F)(F)F)c1-n1cc(-c2cccc(NC(=O)C3(Cl)CC3)c2)cn1 [Example 1-030] | 100%
37 | Cn1nc(C(F)(F)C(F)(F)F)c(C(F)(F)F)c1-n1cc(-c2ccc(F)c(NC(=O)Cc3cccs3)c2)cn1 [Example 1-117] | 100%

system: Phaedon cochleariae; assay: Phaedon cochleariae spray test; format: in vivo; conditions: application rate 100 g/ha; larvae; after 7 days
Description: Phaedon cochleariae—Spray Test
(§2) To produce an appropriate active ingredient formulation, 1 part by weight of active ingredient is dissolved using the specified parts by weight of solvent and made up with water containing an emulsifier concentration of 1000 ppm until the desired concentration is attained. To produce further test concentrations, the preparation is diluted with emulsifier-containing water.
Discs of Chinese cabbage leaves (Brassica pekinensis) are sprayed with an active ingredient formulation of the desired concentration and, after drying, populated with larvae of the mustard beetle (Phaedon cochleariae).
After 7 days, efficacy in % is determined. 100% means that all the beetle larvae have been killed; 0% means that no beetle larvae have been killed.

Row | Compound | efficacy
38 | COc1cc(C(=O)Nc2cc(-c3cnn(-c4c(C(F)(F)F)c(C(F)(F)C(F)(F)F)nn4C)c3)cnc2Cl)ccc1F [Example 2-007] | 100%
39 | Cc1ccc(C(=O)Nc2cc(-c3cnn(-c4c(C(F)(F)F)c(C(F)(F)C(F)(F)F)nn4C)c3)ccc2F)cc1C [Example 1-090] | 100%

system: Spodoptera frugiperda; assay: Spodoptera frugiperda spray test; format: in vivo; conditions: application rate 100 g/ha; caterpillars; after 7 days
Description: Spodoptera frugiperda—Spray Test
as §2
Leaf discs of maize (Zea mays) are sprayed with an active ingredient formulation of the desired concentration and, after drying, populated with caterpillars of the armyworm (Spodoptera frugiperda).
After 7 days, efficacy in % is determined. 100% means that all the caterpillars have been killed; 0% means that no caterpillars have been killed.

Row | Compound | efficacy
40 | Cn1nc(C(F)(F)C(F)(F)F)c(C(F)(F)F)c1-n1cc(-c2ccc(F)c(NC(=O)Cc3cccs3)c2)cn1 [Example 1-117] | 100%

same assay, conditions: application rate 500 g/ha; caterpillars; after 7 days

Row | Compound | efficacy
41 | Cn1nc(C(F)(F)C(F)(F)F)c(C(F)(F)F)c1-n1cc(-c2cccc(NC(=O)C3(Cl)CC3)c2)cn1 [Example 1-030] | 100%

system: Tetranychus urticae; assay: Tetranychus urticae spray test, OP-resistant; format: in vivo; conditions: application rate 100 g/ha; after 6 days
Description: Tetranychus urticae—Spray Test, OP-Resistant
as §2
Discs of bean leaves (Phaseolus vulgaris) infested by all stages of the greenhouse red spider mite (Tetranychus urticae) are sprayed with an active ingredient formulation of the desired concentration.
After 6 days, efficacy in % is determined. 100% means that all the spider mites have been killed; 0% means that none of the spider mites have been killed.

Row | Compound | efficacy
42 | CC(C(=O)Nc1cc(-c2cnn(-c3c(C(F)(F)F)c(C(F)(F)C(F)(F)F)nn3C)c2)ccc1F)c1ccccc1 (racemic) [Example 1-108] | 100%
